IC50 data for 5 molecules are collected here from patent US5126326A (Bio-Mega, Inc., priority 1989, dated 1992).

The experiment addresses HIV protease (Human immunodeficiency virus type 1 group M subtype B, UniProt P03366). In words: biochemical. As to the method:
Recombinant HIV Protease HPLC Assay:
The enzyme was stored as 10 μL aliquots at -70° C. The aliquots were diluted to 1/10th of the original concentration with buffer prior to use (enzyme working solution).
The substrate was made into 10 mM stock in DMSO and stored at -20° C. Prior to use, the stock was diluted with buffer to give a 400 μM solution substrate working solution.
Buffer: 2-(4-Morpholino)ethanesulfonic acid (50 mM), NaCl (25 mM) and EDTA (5 mM) was dissolved in distilled H2 O (90 mL) and the solution was adjusted to pH6 with concentrated aqueous NaOH. The latter solution was diluted to 100 mL with H2 O to give the buffer.
(2) The assay mixture was prepared by mixing 10 μL of the substrate working solution, 0.5 μL of the solution of the test compound in DMSO from step 1, and 10 μL of the enzyme working solution. (3) The assay mixture was incubated at 37° C. for 1 h. (4) The reaction was quenched by adding 100 μL of 2% aqueous TFA. […] Elution was monitored at 210 nm. (6) A control which was the assay mixture without the test compound, was subjected simultaneously to steps 3 to 5.
Inhibition Studies: Cleavage products and remaining parent substrate were quantified by either peak height or by integration of the appropriate HPLC peaks. Substrate conversion was calculated using the following relationship: [formula] Enzyme inhibition of the test compound was calculated as follows: [formula]
The percent inhibition of the enzyme was determined for a minimum of three different concentrations of the test compound. Thereafter, the IC50 was determined graphically by plotting the percent inhibition of the substrate against the concentration of the test compound.

Where a name gives a salt, the structure may show the parent alone. *1 amine or outer side, *2 acyl side, *3 side chain or, on linkers, in order; H or OH if unused. Where a SMILES comes first, the peptide text is derived from it. [ ]: non-standard residue; d: D form. The star is where a group is joined. ACHPA = O=C(C[C@H](O)[C@H](CC1CCCCC1)N[*:1])[*:2]; Carboxymethyl = O=C(O)C*; X1 = O=C(C*)OCc1ccccc1; Boc = CC(C)(C)OC(=O)*

As a reminder, the IC50 is the point on the concentration scale where inhibition reaches its midpoint. Read a high IC50 as lower potency. `CC(C)C[C@H](NC(=O)C[C@H](O)[C@H](CC1CCCCC1)NC(=O)[C@@H](NC(=O)[C@H](Cc1ccc(OCC(=O)OCc2ccccc2)cc1)NC(=O)OC(C)(C)C)C(C)C)C(=O)N[C@@H](Cc1ccccc1)C(N)=O` [Example 1] yielded an IC50 of 70 nM.

As for `CC(C)C[C@H](NC(=O)C[C@H](O)[C@H](CC1CCCCC1)NC(=O)[C@@H](NC(=O)[C@@H](N)Cc1ccc(OCC(=O)OCc2ccccc2)cc1)C(C)C)C(=O)N[C@@H](Cc1ccccc1)C(N)=O` [Example 2, H-Tyr(O-AcOBzl)-Val-ACHPA-Leu-Phe-NH2.HCl] (H-Y(X1)V[ACHPA]LF-NH2), the IC50 turned out to be 5 nM. This IC50 is about 14-fold lower than that of the molecule before.

The molecule `CC(C)C[C@H](NC(=O)C[C@H](O)[C@H](CC1CCCCC1)NC(=O)[C@@H](NC(=O)[C@H](Cc1ccc(OCC(=O)O)cc1)NC(=O)OC(C)(C)C)C(C)C)C(=O)N[C@@H](Cc1ccccc1)C(N)=O` [Example 3, Boc-Tyr(O-AcOH)-Val-ACHPA-Leu-Phe-NH2] (Boc-Y(Carboxymethyl)V[ACHPA]LF-NH2) displayed an IC50 of 52 nM.

With `CC(C)C[C@H](NC(=O)C[C@H](O)[C@H](CC1CCCCC1)NC(=O)[C@@H](NC(=O)[C@@H](N)Cc1ccc(OCC(=O)O)cc1)C(C)C)C(=O)N[C@@H](Cc1ccccc1)C(N)=O` [Example 4, H-Tyr(O-AcOH)-Val-ACHPA-Leu-Phe-NH2.HCl] (H-Y(Carboxymethyl)V[ACHPA]LF-NH2), inhibition was half-maximal at 10 nM (IC50).

`CC(C)C[C@H](NC(=O)C[C@H](O)[C@H](CC1CCCCC1)NC(=O)[C@H](Cc1ccccc1)NC(=O)[C@H](Cc1ccc(OCC(=O)O)cc1)NC(=O)OC(C)(C)C)C(=O)N[C@@H](Cc1ccccc1)C(N)=O` [Example 5, Boc-Tyr(O-AcOH)-Phe-ACHPA-Leu-Phe-NH2] (Boc-Y(Carboxymethyl)F[ACHPA]LF-NH2) returned a concentration for half-maximal inhibition (IC50) of 1000 nM.
